Test results as given in US20110237535A1, “Use of Induced Pluripotent Cells and other Cells for Screening Compound Libraries” (priority 2010, published 2011).
“Also recorded” adds a separate entry of the source. Where two headings read alike, the source gives them in different places.

Key:
HeLa cells = type: cell-based
Experimental: In another experiment HeLa cells were treated with 100 uM of tamoxifen (a calcium influx stimulator), doxorubicin (a DNA damaging agent), cycloheximide (a protein synthesis inhibitor), digitonin (a mild detergent), and a buffer, and monitored every 15 minutes on a BIND™ Reader for 40 hours in a 37° C. incubator. The cytotoxic compounds each have distinct mechanisms of action that have distinct kinetic profiles in the assays of the invention. Toxins can be tested for their effect on differing types of cells and can be placed into a class or sub-class of toxins (e.g. calcium influx stimulator) based on their kinetic profiles. These assays have a higher throughput than electrical impedance testing for screening and profiling of toxic compounds.

[1] = tested on: mES-derived cardiomyocytes (Cor.At); experiment: Doxorubicin toxicity on mES-derived cardiomyocytes, constant PWV monitoring; type: cell-based, murine
Experimental: mES-derived cardiomyocytes (Cor.At) were obtained from Axiogenesis/Lonza. 5,000 cells per well were plated on fibronectin-coated 384 well biosensor plates for 24 h before experiment. These cells beat in culture. Cells were treated with doxorubicin for 17 h at 37° C. with constant monitoring using the BIND™ Reader. […] There is an oscillation of PWVs that indicates the beating of the cells. The amplitude of the beating becomes stronger over time. That is, there is Y axis spread of the PWV reading grows larger over time as the cells beat stronger in culture.

[2] = tested on: Murine embryonic stem cell-derived cardiomyocytes; experiment: Beating amplitude and frequency of cardiomyocytes, PWV at 4 reads per second; type: cell-based
Experimental: Murine embryonic stem cell-derived cardiomyocytes were added to wells of a biosensor and a BIND™ Reader recorded PWVs at the rate of 4 reads per second. One well was treated with KCl and another well was not treated. The cells beat synchronously when cultured on BIND™ optical biosensors and the frequency of the beating can be detected. […] The BIND™ Reader detects beating frequency and rate as oscillations of positive-negative PWV shifts. Kinetic PWV profiles can be used to accurately measure beating rate and frequency. Therefore, the assay provides an ultra high-throughput assay to measure off-target drug effects on cardiotoxicity and contractility.
In another experiment the cardiomyocytes were plated at 20,000 cells per well on fibronectin coated biosensor plates. The cells were incubated for 72 h at 37° C. before the experiment. The cells were monitored for 3 minutes before KCl was added to 50 mM final concentration.
In another experiment cardiomyocytes were treated for 17 hours with several different concentrations of doxorubicin (10 μM, 1 μM, 0.1 μM, 0.01 μM, and 0 μM). The beating amplitude and frequency was measured at 4 reads/second prior to doxorubicin treatment, then again after the 17 hour doxorubicin incubation.

cardiomyocytes = experiment: Cardiomyocyte beating recorded with refined high-speed BIND Cartridge Reader; type: cell-based; settings: 6, 10 and 15 minutes after addition, FIG. 17
Text: An Ocean Optics HT2000+ spectrometer in a BIND™ Cartridge Reader was altered so that the slit that allows light into the spectrometer was widened, allowing more light to enter the enter the spectrometer. Therefore, recordings of up to 1000 Hz, i.e. up to 1000 readings/second can be obtained when the BIND™ Cartridge Reader is “parked” (i.e., the BIND™ Cartridge Reader remains in one position over, e.g., a well holding cells). The recordings are made continually in real-time. Recordings can be taken at about 2, 4, 10, 50, 80, 100, 250, 280, 300, 400, 500, 600, 700, 800, 900, 1,000 or more Hz (or any range between about 2 and about 1,000 Hz).
The refined BIND™ Cartridge Reader was used to take measurements of cardiomyocyte beating. […] By comparison, the data in Examples 1 and 2 was measured at 4 Hz. The increased sampling rate allows a much more refined look at the shape of each individual beat. Different beating “phenotypes” can be determined from well-to-well, in addition, the difference between synchronous beating across the well and asynchronous beating can be determined. […]
Amitriptyline is a tricyclic antidepressant sold under the trade name Elavil™. […] Amitriptyline was added to cardiomyocytes that were beating in culture and PWVs were constantly monitored. […]

[3] = FIG. 6-9, cell line not restated in these blocks
[4] = KCl-treated well vs untreated well, FIG. 11

Row | Compound | kinetic profile (PWV over time) (HeLa cells; [3]) | also measured
1 | O=C(c1ccc(OCCN2CCCCC2)cc1)c1c(-c2ccc(O)cc2)sc2cc(O)ccc12 [raloxifene] | lack of cytotoxic response | –
2 | COc1cccc2c1C(=O)c1c(O)c3c(c(O)c1C2=O)C[C@@](O)(C(=O)CO)C[C@@H]3O[C@H]1C[C@H](N)[C@H](O)[C@H](C)O1 [doxorubicin] | sudden onset, steep decline, followed by a negative PWV plateau | PWV readings ([1]; doxorubicin 17 h at 37° C., 5,000 cells per well, FIG. 10): PWV readings become negative; also recorded: dose dependant; amplitude of beating over time ([1]; doxorubicin 17 h at 37° C., FIG. 10A): becomes weaker over time; amplitude and frequency of beating ([2]; 17 hours doxorubicin at 10 μM, 1 μM, 0.1 μM, 0.01 μM, 0 μM, FIG. 14): disrupted by doxorubicin in a concentration-dependent manner
3 | 4-hydroxy-tamoxifen | faster onset of toxicity than tamoxifen | –
4 | CC[C@]1(O)C[C@@H]2CN(CCc3c([nH]c4ccccc34)[C@@](C(=O)OC)(c3cc4c(cc3OC)N(C)[C@H]3[C@@](O)(C(=O)OC)[C@H](OC(C)=O)[C@]5(CC)C=CCN6CC[C@]43[C@@H]65)C2)C1 [vinblastine] | rapid acute response and then a gradual negative PWV shift over the long term | –
5 | CC/C(=C(\c1ccccc1)c1ccc(OCCN(C)C)cc1)c1ccccc1 [tamoxifen] | sharp downward shift in PWV at early time points | –
6 | CO[C@@]12[C@H](COC(N)=O)C3=C(C(=O)C(C)=C(N)C3=O)N1C[C@@H]1N[C@@H]12 [mitomycin] | sudden onset, steep decline, followed by a negative PWV plateau | –
7 | CC[C@@]1(O)C(=O)OCc2c1cc1n(c2=O)Cc2cc3ccccc3nc2-1 [Camptothecin] | somewhat different kinetic profile | –
8 | [K+].[K+].[O]=[Cr](=[O])([O-])[O][Cr](=[O])(=[O])[O-] [potassium dichromate] | – | kinetic profile (PWV over time) (HeLa cells): sudden onset, steep decline, followed by a negative PWV plateau
9 | CN(C)CCC=C1c2ccccc2CCc2ccccc21 [amitriptyline] | – | beating pattern after compound addition (cardiomyocytes): change from regular, synchronous beating to irregular, non-synchronous beating
10 | [Cl-].[K+] [KCl] | – | rate and frequency of the beating ([2]; KCl 50 mM final concentration, added after 3 minutes of monitoring, 20,000 cells per well, FIG. 13): drastically reduced; amplitude of the beating [2, 4]: loss of amplitude of the beating; frequency of the beating [2, 4]: decrease in the frequency of the beating
11 | N.N.[Cl][Pt][Cl] [Cisplatin] | sudden onset, steep decline, followed by a negative PWV plateau | –
